Measurements from ChEMBL document CHEMBL4680318, “(S)-Erypoegin K, an isoflavone isolated from Erythrina poeppigiana, is a novel inhibitor of topoisomerase IIα: Induction of G2 phase arrest in human gastric cancer cells” (Bioorg Med Chem, 2021).
Activity calls are given as the source filed them. The calls are words filed in the database; no cut-off is given here.

Experiments:
GCIY [1] = experiment: Cell cycle arrest in human GCIY cells assessed as accumulation at G0/G1 phase at 0.3 uM measured after 24 hrs by propidium iodide staining based Muse cell analyzer (reference value: 43 +/- 2.2 %); type: functional
LOX IMVI = experiment: Growth inhibition of human LOX IMVI cells measured after 48 hrs by sulforhodamine B assay; type: functional
MKN-1 [2] = experiment: Cell cycle arrest in human MKN-1 cells assessed as accumulation at G0/G1 phase at 0.1 uM measured after 24 hrs by propidium iodide staining based Muse cell analyzer (reference value: 49.6 +/- 2.6 %); type: functional
ACHN = experiment: Growth inhibition of human ACHN cells measured after 48 hrs by sulforhodamine B assay; type: functional
GCIY [3] = experiment: Induction of apoptosis in human GCIY cells assessed as activation of caspase 3 measured after 5 to 35 hrs by fluorescence assay; type: functional, cell-based; conditions: dose 1-10 µM, time 5-35 hrs
GCIY [4] = experiment: Cell cycle arrest in human GCIY cells assessed as accumulation at G2/M phase at 0.3 uM measured after 24 hrs by propidium iodide staining based Muse cell analyzer (reference value: 28.9 +/- 1.3 %); type: functional
SF-295 = experiment: Growth inhibition of human SF-295 cells measured after 48 hrs by sulforhodamine B assay; type: functional
St-4 = experiment: Growth inhibition of human St-4 cells measured after 48 hrs by sulforhodamine B assay; type: functional
U-251 = experiment: Growth inhibition of human U-251 cells measured after 48 hrs by sulforhodamine B assay; type: functional
[5] = target: DNA topoisomerase 2-alpha (Homo sapiens) (UniProt P11388); experiment: Inhibition of human DNA topoisomerase 2alpha assessed as suppression of decatenation using catenated kinetoplast DNA as substrate measured after 30 mins by ethidium bromide staining-based UV imaging analysis
Chain of DNA topoisomerase 2-alpha (Homo sapiens) (P11388 whole entry): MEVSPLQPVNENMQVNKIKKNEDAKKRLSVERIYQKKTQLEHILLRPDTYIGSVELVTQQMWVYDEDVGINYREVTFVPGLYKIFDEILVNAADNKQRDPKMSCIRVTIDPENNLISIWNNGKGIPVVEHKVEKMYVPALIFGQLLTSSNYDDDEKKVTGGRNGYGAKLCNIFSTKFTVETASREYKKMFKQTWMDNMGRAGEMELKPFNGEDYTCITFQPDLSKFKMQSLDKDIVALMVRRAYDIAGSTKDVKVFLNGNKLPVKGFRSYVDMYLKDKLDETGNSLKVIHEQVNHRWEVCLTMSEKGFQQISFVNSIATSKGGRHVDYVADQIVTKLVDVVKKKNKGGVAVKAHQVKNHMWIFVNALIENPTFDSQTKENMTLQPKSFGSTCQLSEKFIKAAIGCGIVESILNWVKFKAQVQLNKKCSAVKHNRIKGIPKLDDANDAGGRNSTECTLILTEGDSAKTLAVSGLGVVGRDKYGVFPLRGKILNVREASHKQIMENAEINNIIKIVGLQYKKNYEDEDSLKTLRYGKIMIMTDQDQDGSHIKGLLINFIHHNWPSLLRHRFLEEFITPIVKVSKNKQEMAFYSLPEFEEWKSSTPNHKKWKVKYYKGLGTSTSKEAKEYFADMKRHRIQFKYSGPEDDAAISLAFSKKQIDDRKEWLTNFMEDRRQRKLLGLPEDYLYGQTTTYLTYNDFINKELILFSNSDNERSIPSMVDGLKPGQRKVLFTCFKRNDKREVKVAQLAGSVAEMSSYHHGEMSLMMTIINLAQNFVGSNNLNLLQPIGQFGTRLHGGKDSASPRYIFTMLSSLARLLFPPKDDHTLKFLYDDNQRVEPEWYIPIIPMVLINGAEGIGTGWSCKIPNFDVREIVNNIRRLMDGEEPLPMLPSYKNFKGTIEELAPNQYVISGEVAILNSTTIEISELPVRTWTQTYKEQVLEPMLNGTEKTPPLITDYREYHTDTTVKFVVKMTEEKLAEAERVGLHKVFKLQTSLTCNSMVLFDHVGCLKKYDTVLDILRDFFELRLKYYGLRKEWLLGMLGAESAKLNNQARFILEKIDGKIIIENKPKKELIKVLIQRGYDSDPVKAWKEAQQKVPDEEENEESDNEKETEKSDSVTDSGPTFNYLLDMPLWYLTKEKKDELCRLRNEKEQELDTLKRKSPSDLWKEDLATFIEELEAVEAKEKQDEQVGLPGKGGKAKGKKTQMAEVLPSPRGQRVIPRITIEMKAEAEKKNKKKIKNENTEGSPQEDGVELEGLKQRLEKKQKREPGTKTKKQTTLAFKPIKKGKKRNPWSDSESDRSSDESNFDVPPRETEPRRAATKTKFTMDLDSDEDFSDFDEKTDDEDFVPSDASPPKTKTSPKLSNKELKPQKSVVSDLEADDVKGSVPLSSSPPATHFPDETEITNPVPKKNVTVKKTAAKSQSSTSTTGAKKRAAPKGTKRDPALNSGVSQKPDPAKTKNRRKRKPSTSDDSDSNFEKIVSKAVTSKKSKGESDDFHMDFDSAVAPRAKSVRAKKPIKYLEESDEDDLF

MKN-1 [6] = experiment: Induction of apoptosis in human MKN-1 cells assessed as activation of caspase 3 measured after 5 to 35 hrs by fluorescence assay; type: functional, cell-based; conditions: dose 1-10 µM, time 5-35 hrs
MKN-1 [7] = experiment: Growth inhibition of human MKN-1 cells measured after 48 hrs by sulforhodamine B assay; type: functional
MKN-74 = experiment: Growth inhibition of human MKN-74 cells measured after 48 hrs by sulforhodamine B assay; type: functional
NCI-H23 = experiment: Growth inhibition of human NCI-H23 cells measured after 48 hrs by sulforhodamine B assay; type: functional
[8] = Toxicity in KSN/Slc nude mouse xenografted with human GCIY cells assessed as effect on body weight at 40 mg/kg, ip administered twice a week for 4 weeks starting from day 4 post inoculation; type: organism-based; conditions: in vivo, 672 h
OVCAR-5 = experiment: Growth inhibition of human OVCAR-5 cells measured after 48 hrs by sulforhodamine B assay; type: functional
HT-29 = experiment: Growth inhibition of human HT-29 cells measured after 48 hrs by sulforhodamine B assay; type: functional
[9] = Growth inhibition of human HBC4 cells measured after 48 hrs by sulforhodamine B assay; type: functional
SK-OV-3 = experiment: Growth inhibition of human SK-OV-3 cells measured after 48 hrs by sulforhodamine B assay; type: functional
SNB-78 = experiment: Growth inhibition of human SNB-78 cells measured after 48 hrs by sulforhodamine B assay; type: functional
HCT-15 = experiment: Growth inhibition of human HCT-15 cells measured after 48 hrs by sulforhodamine B assay; type: functional
[10] = Growth inhibition of human HBC5 cells measured after 48 hrs by sulforhodamine B assay; type: functional
DU-145 = experiment: Growth inhibition of human DU-145 cells measured after 48 hrs by sulforhodamine B assay; type: functional
GCIY [11] = experiment: Induction of apoptosis in human GCIY cells assessed as activation of caspase 3 at 1 to 10 uM by fluorescence assay; type: functional, cell-based; conditions: dose 1-10 µM, time 5-35 hrs, TDE = time-dependent effect
MCF7 = experiment: Growth inhibition of human MCF7 cells measured after 48 hrs by sulforhodamine B assay; type: functional
MKN-1 [12] = experiment: Cytotoxicity against human MKN-1 cells assessed as reduction in cell viability measured after 48 hrs by MTS/CellTiter96 aqueous one solution cell proliferation assay; type: functional, cell-based; conditions: MKN-1, 48 h
MKN-45 = experiment: Growth inhibition of human MKN-45 cells measured after 48 hrs by sulforhodamine B assay; type: functional
DMS-114 = experiment: Growth inhibition of human DMS-114 cells measured after 48 hrs by sulforhodamine B assay; type: functional
NCI-H226 = experiment: Growth inhibition of human NCI-H226 cells measured after 48 hrs by sulforhodamine B assay; type: functional
MKN-1 [13] = experiment: Cell cycle arrest in human MKN-1 cells assessed as accumulation at G0/G1 phase at 0.3 uM measured after 24 hrs by propidium iodide staining based Muse cell analyzer (reference value: 49.6 +/- 2.6 %); type: functional
RXF 631 = experiment: Growth inhibition of human RXF 631 cells measured after 48 hrs by sulforhodamine B assay; type: functional
MKN-28 = experiment: Growth inhibition of human MKN-28 cells measured after 48 hrs by sulforhodamine B assay; type: functional
HCT-116 = experiment: Growth inhibition of human HCT-116 cells measured after 48 hrs by sulforhodamine B assay; type: functional
MKN-1 [14] = experiment: Induction of apoptosis in human MKN-1 cells assessed as activation of caspase 9 at 1 to 10 uM by fluorescence assay; type: functional, cell-based; conditions: dose 1-10 µM, time 5-35 hrs, TDE = time-dependent effect
[15] = target: DNA topoisomerase 2-alpha (Homo sapiens) (UniProt P11388); experiment: Inhibition of human DNA topoisomerase 2alpha assessed as stabilization of DNA cleavage complex at 50 to 200 uM using supercoiled pSL1180 plasmid DNA as substrate measured after 30 mins by ethidium bromide staining-based UV imaging analysis; conditions: dose 50-200 µM
MDA-MB-231 = experiment: Growth inhibition of human MDA-MB-231 cells measured after 48 hrs by sulforhodamine B assay; type: functional
OVCAR-3 = experiment: Growth inhibition of human OVCAR-3 cells measured after 48 hrs by sulforhodamine B assay; type: functional
SF-539 = experiment: Growth inhibition of human SF-539 cells measured after 48 hrs by sulforhodamine B assay; type: functional
MKN-1 [16] = experiment: Cell cycle arrest in human MKN-1 cells assessed as accumulation at G2/M phase at 0.1 uM measured after 24 hrs by propidium iodide staining based Muse cell analyzer (reference value: 33.2 +/- 0.5 %); type: functional
MKN-1 [17] = experiment: Cell cycle arrest in human MKN-1 cells assessed as accumulation at S phase at 0.3 uM measured after 24 hrs by propidium iodide staining based Muse cell analyzer (reference value: 15.5 +/- 0.2 %); type: functional
MKN-1 [18] = experiment: Induction of apoptosis in human MKN-1 cells assessed as activation of caspase 9 measured after 5 to 35 hrs by fluorescence assay; type: functional, cell-based; conditions: dose 1-10 µM, time 5-35 hrs
GCIY [19] = experiment: Cell cycle arrest in human GCIY cells assessed as accumulation at G2/M phase at 0.1 uM measured after 24 hrs by propidium iodide staining based Muse cell analyzer (reference value: 28.9 +/- 1.3 %); type: functional
KM12 = experiment: Growth inhibition of human KM12 cells measured after 48 hrs by sulforhodamine B assay; type: functional
NCI-H522 = experiment: Growth inhibition of human NCI-H522 cells measured after 48 hrs by sulforhodamine B assay; type: functional
MKN-1 [20] = experiment: Induction of apoptosis in human MKN-1 cells assessed as activation of caspase 3 at 1 to 10 uM by fluorescence assay; type: functional, cell-based; conditions: dose 1-10 µM, time 5-35 hrs, TDE = time-dependent effect

CC(C)(O)[C@@H]1Cc2c(cc(O)c3c(=O)c(-c4ccc(O)cc4)coc23)O1
Activity (GCIY [1]): 2.8%
GI50 (LOX IMVI): 257 nM
Activity (MKN-1 [2]): 24.9%
GI50 (ACHN): 182 nM
Activity (GCIY [3]): Dose-dependent effect
Activity (GCIY [4]): 87.3%
GI50 (SF-295): 275 nM
GI50 (St-4): 6030 nM
GI50 (U-251): 331 nM
inhibition [5]: Active
Activity (MKN-1 [6]): Dose-dependent effect
GI50 (MKN-1 [7]): 295 nM
GI50 (MKN-74): 6920 nM
GI50 (NCI-H23): 380 nM
Activity [8]: Non-Toxic
GI50 (OVCAR-5): 1350 nM
GI50 (HT-29): 10500 nM
GI50 [9]: 1740 nM
GI50 (SK-OV-3): 427 nM
GI50 (SNB-78): 5890 nM
GI50 (HCT-15): 676 nM
GI50 [10]: 6760 nM
GI50 (DU-145): 316 nM
Activity (GCIY [11]): Tde
GI50 (MCF7): 138 nM
IC50 (MKN-1 [12]): 327 nM
GI50 (MKN-45): 347 nM
GI50 (DMS-114): 380 nM
GI50 (NCI-H226): 295 nM
Activity (MKN-1 [13]): 4.9%
GI50 (RXF 631): 5010 nM
GI50 (MKN-28): 7080 nM
GI50 (HCT-116): 1070 nM
Activity (MKN-1 [14]): Tde
inhibition [15]: Active
GI50 (MDA-MB-231): 1740 nM
GI50 (OVCAR-3): 2880 nM
GI50 (SF-539): 347 nM
Activity (MKN-1 [16]): 60.8%
Activity (MKN-1 [17]): 9.5%
Activity (MKN-1 [18]): Dose-dependent effect
Activity (GCIY [19]): 40.4%
GI50 (KM12): 813 nM
GI50 (NCI-H522): 1580 nM
Activity (MKN-1 [20]): Tde
